Results taken from ChEMBL document CHEMBL4507278 (2021).

Experiments:
[1] = system: Tyrosine-protein kinase ABL1 (Homo sapiens), P00519 [F317I]; details: Compound concentration 1000.0 nM
[2] = system: Tyrosine-protein kinase ABL1 (Homo sapiens), P00519 [Q252H]; details: Compound concentration 1000.0 nM
[3] = system: ALK tyrosine kinase receptor (Homo sapiens), Q9UM73 [L1196M]; details: Compound concentration 1000.0 nM
[4] = molecular target: Serine/threonine-protein kinase BRSK1 (Homo sapiens) (UniProt Q8TDC3); details: Compound concentration 1000.0 nM
[5] = molecular target: Cyclin-dependent kinase 13 (Homo sapiens) (UniProt Q14004); details: Compound concentration 1000.0 nM
[6] = molecular target: Death-associated protein kinase 2 (Homo sapiens) (UniProt Q9UIK4); details: Compound concentration 1000.0 nM
[7] = molecular target: Dual specificity tyrosine-phosphorylation-regulated kinase 2 (Homo sapiens) (UniProt Q92630); details: Compound concentration 1000.0 nM
[8] = system: Epidermal growth factor receptor (Homo sapiens), P00533 [T790M]; details: Compound concentration 1000.0 nM
[9] = molecular target: Ephrin type-A receptor 1 (Homo sapiens) (UniProt P21709); details: Compound concentration 1000.0 nM
[10] = molecular target: Focal adhesion kinase 1 (Homo sapiens) (UniProt Q05397); details: Compound concentration 1000.0 nM
[11] = molecular target: Tyrosine-protein kinase Fes/Fps (Homo sapiens) (UniProt P07332); details: Compound concentration 1000.0 nM
[12] = molecular target: Fibroblast growth factor receptor 2 (Homo sapiens) (UniProt P21802); details: Compound concentration 1000.0 nM
[13] = system: Fibroblast growth factor receptor 3 (Homo sapiens), P22607 [G697C]; details: Compound concentration 1000.0 nM
[14] = system: Receptor-type tyrosine-protein kinase FLT3 (Homo sapiens), P36888 [D835H]; details: Compound concentration 1000.0 nM
[15] = system: Receptor-type tyrosine-protein kinase FLT3 (Homo sapiens), P36888 [UNDEFINED MUTATION]; details: Compound concentration 1000.0 nM
[16] = molecular target: Receptor-type tyrosine-protein kinase FLT3 (Homo sapiens) (UniProt P36888); details: Compound concentration 1000.0 nM
[17] = molecular target: Homeodomain-interacting protein kinase 2 (Homo sapiens) (UniProt Q9H2X6); details: Compound concentration 1000.0 nM
[18] = molecular target: Insulin receptor (Homo sapiens) (UniProt P06213); details: Compound concentration 1000.0 nM
[19] = molecular target: Mitogen-activated protein kinase 8 (Homo sapiens) (UniProt P45983); details: Compound concentration 1000.0 nM
[20] = system: Mast/stem cell growth factor receptor Kit (Homo sapiens), P10721 [V559D]; details: Compound concentration 1000.0 nM
Mast/stem cell growth factor receptor Kit (Homo sapiens), P10721 [V559D], sequence (P10721 whole entry V559D): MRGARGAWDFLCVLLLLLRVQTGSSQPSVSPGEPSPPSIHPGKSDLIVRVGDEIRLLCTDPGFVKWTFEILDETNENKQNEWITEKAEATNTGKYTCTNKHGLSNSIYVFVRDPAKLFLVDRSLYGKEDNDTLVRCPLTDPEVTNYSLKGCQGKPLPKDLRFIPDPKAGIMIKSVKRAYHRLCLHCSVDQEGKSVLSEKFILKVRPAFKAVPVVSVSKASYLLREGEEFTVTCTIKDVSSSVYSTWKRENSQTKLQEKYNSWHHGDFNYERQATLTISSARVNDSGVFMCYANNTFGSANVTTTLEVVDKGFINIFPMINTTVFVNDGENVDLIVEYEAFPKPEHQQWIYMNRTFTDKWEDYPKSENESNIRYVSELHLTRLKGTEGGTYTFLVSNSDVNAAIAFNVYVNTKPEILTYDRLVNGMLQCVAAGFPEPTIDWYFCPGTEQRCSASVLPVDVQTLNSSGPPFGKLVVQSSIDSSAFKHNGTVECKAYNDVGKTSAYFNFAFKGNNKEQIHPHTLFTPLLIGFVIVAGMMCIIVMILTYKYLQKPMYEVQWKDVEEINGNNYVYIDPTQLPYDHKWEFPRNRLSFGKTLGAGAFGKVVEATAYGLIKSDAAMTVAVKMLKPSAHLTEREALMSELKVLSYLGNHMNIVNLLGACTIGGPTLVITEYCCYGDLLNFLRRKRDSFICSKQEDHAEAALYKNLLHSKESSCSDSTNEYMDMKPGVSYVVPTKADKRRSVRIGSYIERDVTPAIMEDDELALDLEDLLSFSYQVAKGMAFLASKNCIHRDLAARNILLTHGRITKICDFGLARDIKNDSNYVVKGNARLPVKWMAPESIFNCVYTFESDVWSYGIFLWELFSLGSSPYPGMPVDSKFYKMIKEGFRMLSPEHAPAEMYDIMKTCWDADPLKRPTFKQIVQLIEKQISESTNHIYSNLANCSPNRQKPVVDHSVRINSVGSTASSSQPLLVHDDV

[21] = molecular target: Tyrosine-protein kinase Lck (Homo sapiens) (UniProt P06239); details: Compound concentration 1000.0 nM
[22] = molecular target: Mitogen-activated protein kinase kinase kinase 2 (Homo sapiens) (UniProt Q9Y2U5); details: Compound concentration 1000.0 nM
Mitogen-activated protein kinase kinase kinase 2 (Homo sapiens), sequence (Q9Y2U5 whole entry): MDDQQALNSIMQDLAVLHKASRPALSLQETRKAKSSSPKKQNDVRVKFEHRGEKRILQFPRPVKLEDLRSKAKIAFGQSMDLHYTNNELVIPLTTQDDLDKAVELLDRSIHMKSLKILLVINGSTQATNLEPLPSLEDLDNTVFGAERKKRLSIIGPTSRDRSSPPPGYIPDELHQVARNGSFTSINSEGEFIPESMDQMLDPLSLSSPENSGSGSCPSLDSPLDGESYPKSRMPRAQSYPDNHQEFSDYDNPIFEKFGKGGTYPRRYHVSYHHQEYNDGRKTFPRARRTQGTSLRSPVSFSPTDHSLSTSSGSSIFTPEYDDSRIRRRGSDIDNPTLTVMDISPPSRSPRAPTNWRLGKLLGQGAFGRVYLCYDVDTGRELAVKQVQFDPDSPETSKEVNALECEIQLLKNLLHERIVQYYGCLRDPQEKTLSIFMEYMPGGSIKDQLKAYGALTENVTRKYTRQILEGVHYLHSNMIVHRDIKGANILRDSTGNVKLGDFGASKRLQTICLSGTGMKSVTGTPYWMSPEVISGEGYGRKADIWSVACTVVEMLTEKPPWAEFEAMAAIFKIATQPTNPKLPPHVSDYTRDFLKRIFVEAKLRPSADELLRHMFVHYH

[23] = molecular target: Dual specificity mitogen-activated protein kinase kinase 1 (Homo sapiens) (UniProt Q02750); details: Compound concentration 1000.0 nM
[24] = molecular target: Serine/threonine-protein kinase MRCK beta (Homo sapiens) (UniProt Q9Y5S2); details: Compound concentration 1000.0 nM
[25] = molecular target: Serine/threonine-protein kinase 4 (Homo sapiens) (UniProt Q13043); details: Compound concentration 1000.0 nM
[26] = molecular target: Myosin light chain kinase 2, skeletal/cardiac muscle (Homo sapiens) (UniProt Q9H1R3); details: Compound concentration 1000.0 nM
[27] = molecular target: Myosin-IIIa (Homo sapiens) (UniProt Q8NEV4); details: Compound concentration 1000.0 nM
[28] = molecular target: Mitogen-activated protein kinase 12 (Homo sapiens) (UniProt P53778); details: Compound concentration 1000.0 nM
[29] = molecular target: 3-phosphoinositide-dependent protein kinase 1 (Homo sapiens) (UniProt O15530); details: Compound concentration 1000.0 nM
3-phosphoinositide-dependent protein kinase 1 (Homo sapiens), sequence (O15530 whole entry, the tested form may be a part): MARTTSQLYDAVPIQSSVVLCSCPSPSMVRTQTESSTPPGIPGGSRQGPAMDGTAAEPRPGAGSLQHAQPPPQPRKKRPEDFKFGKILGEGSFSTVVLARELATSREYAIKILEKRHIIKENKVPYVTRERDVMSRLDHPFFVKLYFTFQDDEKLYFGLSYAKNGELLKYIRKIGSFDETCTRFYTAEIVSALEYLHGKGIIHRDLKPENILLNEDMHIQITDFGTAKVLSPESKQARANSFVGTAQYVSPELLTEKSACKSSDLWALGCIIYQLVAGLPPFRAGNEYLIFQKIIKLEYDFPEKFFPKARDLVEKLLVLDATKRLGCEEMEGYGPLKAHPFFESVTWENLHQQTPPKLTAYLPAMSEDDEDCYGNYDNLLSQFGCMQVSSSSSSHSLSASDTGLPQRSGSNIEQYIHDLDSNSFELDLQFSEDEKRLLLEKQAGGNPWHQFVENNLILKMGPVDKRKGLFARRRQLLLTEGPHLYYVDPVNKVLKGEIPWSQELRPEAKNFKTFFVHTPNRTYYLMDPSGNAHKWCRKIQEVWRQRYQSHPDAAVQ

[30] = molecular target: Phosphatidylinositol 4-phosphate 3-kinase C2 domain-containing subunit beta (Homo sapiens) (UniProt O00750); details: Compound concentration 1000.0 nM
[31] = system: Phosphatidylinositol 4,5-bisphosphate 3-kinase catalytic subunit alpha isoform (Homo sapiens), P42336 [C420R]; details: Compound concentration 1000.0 nM
Phosphatidylinositol 4,5-bisphosphate 3-kinase catalytic subunit alpha isoform (Homo sapiens), P42336 [C420R], sequence (P42336 whole entry C420R, canonical isoform): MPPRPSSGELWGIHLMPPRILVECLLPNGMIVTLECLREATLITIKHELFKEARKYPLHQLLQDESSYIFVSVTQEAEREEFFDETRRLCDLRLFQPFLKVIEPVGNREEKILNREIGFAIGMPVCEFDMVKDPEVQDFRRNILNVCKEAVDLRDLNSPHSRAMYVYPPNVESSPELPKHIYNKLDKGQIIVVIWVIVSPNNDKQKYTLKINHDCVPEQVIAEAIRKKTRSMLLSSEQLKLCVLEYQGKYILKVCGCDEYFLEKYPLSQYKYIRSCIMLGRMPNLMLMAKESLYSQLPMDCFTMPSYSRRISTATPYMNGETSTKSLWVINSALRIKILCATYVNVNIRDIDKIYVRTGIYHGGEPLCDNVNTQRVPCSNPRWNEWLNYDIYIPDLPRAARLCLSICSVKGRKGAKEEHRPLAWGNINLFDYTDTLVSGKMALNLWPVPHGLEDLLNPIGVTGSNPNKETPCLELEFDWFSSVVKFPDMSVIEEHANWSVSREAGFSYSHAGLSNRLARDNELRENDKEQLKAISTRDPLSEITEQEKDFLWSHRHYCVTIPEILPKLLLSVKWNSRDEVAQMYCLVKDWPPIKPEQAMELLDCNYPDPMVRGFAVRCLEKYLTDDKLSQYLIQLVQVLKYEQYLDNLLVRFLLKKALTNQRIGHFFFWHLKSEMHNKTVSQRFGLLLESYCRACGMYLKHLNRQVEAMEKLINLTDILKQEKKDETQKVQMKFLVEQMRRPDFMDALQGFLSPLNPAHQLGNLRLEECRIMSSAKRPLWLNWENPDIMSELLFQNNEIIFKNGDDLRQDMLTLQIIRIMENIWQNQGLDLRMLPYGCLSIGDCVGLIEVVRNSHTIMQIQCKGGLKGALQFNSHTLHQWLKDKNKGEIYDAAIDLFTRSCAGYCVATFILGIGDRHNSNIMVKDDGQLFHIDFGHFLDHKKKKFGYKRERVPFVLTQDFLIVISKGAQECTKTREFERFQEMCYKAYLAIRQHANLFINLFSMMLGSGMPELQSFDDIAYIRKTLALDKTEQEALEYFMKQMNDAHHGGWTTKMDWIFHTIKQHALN

[32] = system: Phosphatidylinositol 4,5-bisphosphate 3-kinase catalytic subunit alpha isoform (Homo sapiens), P42336 [E545A]; details: Compound concentration 1000.0 nM
Phosphatidylinositol 4,5-bisphosphate 3-kinase catalytic subunit alpha isoform (Homo sapiens), P42336 [E545A], sequence (P42336 whole entry E545A, canonical isoform): as the sequence (P42336 whole entry C420R, canonical isoform) above, with R420C, E545A counted along it

[33] = molecular target: cAMP-dependent protein kinase catalytic subunit beta (Homo sapiens) (UniProt P22694); details: Compound concentration 1000.0 nM
[34] = molecular target: Serine/threonine-protein kinase PLK1 (Homo sapiens) (UniProt P53350); details: Compound concentration 1000.0 nM
[35] = system: Proto-oncogene tyrosine-protein kinase receptor Ret (Homo sapiens), P07949 [V804L]; details: Compound concentration 1000.0 nM
[36] = molecular target: Ribosomal protein S6 kinase alpha-6 (Homo sapiens) (UniProt Q9UK32); details: Compound concentration 1000.0 nM
[37] = molecular target: SRSF protein kinase 3 (Homo sapiens) (UniProt Q9UPE1); details: Compound concentration 1000.0 nM
[38] = molecular target: Serine/threonine-protein kinase 16 (Homo sapiens) (UniProt O75716); details: Compound concentration 1000.0 nM
[39] = molecular target: Serine/threonine-protein kinase 36 (Homo sapiens) (UniProt Q9NRP7); details: Compound concentration 1000.0 nM
Serine/threonine-protein kinase 36 (Homo sapiens), sequence (Q9NRP7 whole entry): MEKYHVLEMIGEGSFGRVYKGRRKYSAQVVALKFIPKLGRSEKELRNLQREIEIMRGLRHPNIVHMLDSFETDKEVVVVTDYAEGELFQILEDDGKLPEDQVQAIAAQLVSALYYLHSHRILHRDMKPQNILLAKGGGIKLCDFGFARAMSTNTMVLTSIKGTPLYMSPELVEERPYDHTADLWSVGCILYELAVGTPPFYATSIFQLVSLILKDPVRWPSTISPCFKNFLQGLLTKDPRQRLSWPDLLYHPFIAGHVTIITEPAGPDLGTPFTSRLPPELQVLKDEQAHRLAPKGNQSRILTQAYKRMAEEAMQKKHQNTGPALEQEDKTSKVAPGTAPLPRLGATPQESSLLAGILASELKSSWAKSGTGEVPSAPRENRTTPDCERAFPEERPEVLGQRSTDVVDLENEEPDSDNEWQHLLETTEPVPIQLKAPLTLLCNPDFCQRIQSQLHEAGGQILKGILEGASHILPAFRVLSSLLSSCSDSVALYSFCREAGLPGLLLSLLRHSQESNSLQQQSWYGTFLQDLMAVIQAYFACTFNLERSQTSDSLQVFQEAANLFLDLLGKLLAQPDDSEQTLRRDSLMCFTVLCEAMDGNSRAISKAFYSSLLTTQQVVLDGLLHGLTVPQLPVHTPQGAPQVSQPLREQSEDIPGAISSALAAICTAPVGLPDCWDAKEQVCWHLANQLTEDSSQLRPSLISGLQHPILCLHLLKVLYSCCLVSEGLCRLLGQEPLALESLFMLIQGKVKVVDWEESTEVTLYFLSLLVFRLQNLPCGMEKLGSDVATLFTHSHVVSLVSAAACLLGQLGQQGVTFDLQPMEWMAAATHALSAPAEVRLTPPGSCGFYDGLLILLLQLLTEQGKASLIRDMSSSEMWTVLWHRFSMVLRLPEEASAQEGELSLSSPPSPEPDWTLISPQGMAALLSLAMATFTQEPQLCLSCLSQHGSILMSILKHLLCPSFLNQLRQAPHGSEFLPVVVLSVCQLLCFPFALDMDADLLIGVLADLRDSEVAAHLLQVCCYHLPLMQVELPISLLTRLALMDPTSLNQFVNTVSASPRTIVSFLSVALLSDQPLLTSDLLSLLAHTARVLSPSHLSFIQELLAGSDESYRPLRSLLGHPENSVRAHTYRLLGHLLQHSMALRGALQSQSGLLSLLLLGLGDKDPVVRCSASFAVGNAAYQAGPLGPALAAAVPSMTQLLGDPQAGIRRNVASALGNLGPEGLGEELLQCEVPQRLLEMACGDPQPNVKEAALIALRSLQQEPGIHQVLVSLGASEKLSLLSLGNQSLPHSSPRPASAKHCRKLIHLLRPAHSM

[40] = molecular target: Non-receptor tyrosine-protein kinase TNK1 (Homo sapiens) (UniProt Q13470); details: Compound concentration 1000.0 nM
[41] = molecular target: Testis-specific serine/threonine-protein kinase 1 (Homo sapiens) (UniProt Q9BXA7); details: Compound concentration 1000.0 nM
Testis-specific serine/threonine-protein kinase 1 (Homo sapiens), sequence (Q9BXA7 whole entry): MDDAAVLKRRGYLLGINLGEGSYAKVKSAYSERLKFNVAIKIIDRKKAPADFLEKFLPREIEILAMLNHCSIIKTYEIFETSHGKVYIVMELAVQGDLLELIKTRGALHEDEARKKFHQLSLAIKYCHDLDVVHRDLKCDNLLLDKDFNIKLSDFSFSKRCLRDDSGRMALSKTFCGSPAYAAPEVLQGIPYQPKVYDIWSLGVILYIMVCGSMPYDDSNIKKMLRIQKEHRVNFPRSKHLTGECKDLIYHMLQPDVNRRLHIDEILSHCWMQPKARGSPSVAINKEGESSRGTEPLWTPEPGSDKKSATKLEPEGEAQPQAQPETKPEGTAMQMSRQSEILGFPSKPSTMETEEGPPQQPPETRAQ

[42] = molecular target: Non-receptor tyrosine-protein kinase TYK2 (Homo sapiens) (UniProt P29597); details: Compound concentration 1000.0 nM
[43] = molecular target: Tyrosine-protein kinase receptor TYRO3 (Homo sapiens) (UniProt Q06418); details: Compound concentration 1000.0 nM
[44] = molecular target: Serine/threonine-protein kinase 32B (Homo sapiens) (UniProt Q9NY57); details: Compound concentration 1000.0 nM
[45] = molecular target: 5-hydroxytryptamine receptor 7 (Homo sapiens) (UniProt P34969); details: Compound concentration 10.0 uM

CS(=O)(=O)NCC[C@H](NC(=O)c1cncc2c1cnn2-c1ccc(F)cc1)c1ccnc(S(C)(=O)=O)c1 [BI 9307]
inactive: residual activity [1] 85% | residual activity [2] 100% | residual activity [3] 100% | residual activity [4] 99% | residual activity [5] 100% | residual activity [6] 100% | residual activity [7] 91% | residual activity [8] 90% | residual activity [9] 100% | residual activity [10] 93% | residual activity [11] 100% | residual activity [12] 100% | residual activity [13] 82% | residual activity [14] 100% | residual activity [15] 92% | residual activity [16] 100% | residual activity [17] 100% | residual activity [18] 92% | residual activity [19] 80% | residual activity [20] 100% | residual activity [21] 100% | residual activity [22] 100% | residual activity [23] 100% | residual activity [24] 95% | residual activity [25] 100% | residual activity [26] 93% | residual activity [27] 93% | residual activity [28] 100% | residual activity [29] 100% | residual activity [30] 78% | residual activity [31] 98% | residual activity [32] 100% | residual activity [33] 100% | residual activity [34] 100% | residual activity [35] 100% | residual activity [36] 99% | residual activity [37] 100% | residual activity [38] 99% | residual activity [39] 100% | residual activity [40] 100% | residual activity [41] 99% | residual activity [42] 100% | residual activity [43] 94% | residual activity [44] 67% | inhibition [45] 4.81%

CS(=O)(=O)c1cc(C2(NC(=O)c3cncc4c3cnn4-c3ccc(F)cc3)CC2)ccn1 [BI 639667]
inactive: residual activity [1] 98% | residual activity [2] 100% | residual activity [3] 100% | residual activity [4] 74% | residual activity [5] 100% | residual activity [6] 96% | residual activity [7] 95% | residual activity [8] 100% | residual activity [9] 100% | residual activity [10] 100% | residual activity [11] 100% | residual activity [12] 100% | residual activity [13] 91% | residual activity [14] 100% | residual activity [15] 100% | residual activity [16] 93% | residual activity [17] 100% | residual activity [18] 100% | residual activity [19] 95% | residual activity [20] 100% | residual activity [21] 100% | residual activity [22] 84% | residual activity [23] 81% | residual activity [24] 100% | residual activity [25] 77% | residual activity [26] 100% | residual activity [27] 85% | residual activity [28] 100% | residual activity [29] 100% | residual activity [30] 84% | residual activity [31] 83% | residual activity [32] 100% | residual activity [33] 100% | residual activity [34] 90% | residual activity [35] 100% | residual activity [36] 97% | residual activity [37] 100% | residual activity [38] 93% | residual activity [39] 100% | residual activity [40] 80% | residual activity [41] 63% | residual activity [42] 100% | residual activity [43] 91% | residual activity [44] 100% | inhibition [45] 10.5%
